Measurements reported in patent US7951359B2, “Compositions and methods for therapy or prevention of chemotherapy-induced neuropathy” (Merck Serono SA, priority 2004, dated 2011).

System: taxol induced neuropathy
Assay: Electrophysiological monitoring in taxol induced neuropathy, co-administration
Format: in vivo, rat
Description: The aim of the following experiment was to investigate the potential neuroprotective effect of IL6 in an additional model of chemotherapeutic induced neuropathy mediated by taxol. The potential preventive effect of IL-6 co-administration was tested. Administration of IL-6 was initiated together with taxol administration. The doses of IL-6 of 3 and 10 μg/kg were administered daily or in the case 10 μg/kg also only 3 times per week.
Females 10 weeks old aged Dark Agouti rats were used, 12 animals per group were included as following
The taxol was diluted in a solution of cremophor/ethanol/dextrose 5% and administered twice a week during 4 weeks.
4-MC and test compounds treatment was initiated the first day of intoxication and was stopped at the end of the study.
The study was performed on 8 weeks (1 week for the baseline, 4 weeks for the taxol intoxication and 3 weeks of recovery).
Control, taxol, and taxol-IL-6 co-administered group of rats at the indicated doses were subjected to electrophysiological monitoring to assess the effect of IL-6 in taxol-induced loss of fiber/nerve function.
Sensitive nerve conduction velocity (SNCV) was also recorded. The tail skin electrodes were placed as follows: a reference needle inserted at the base of the tail and an anode needle placed 30 mm away from the reference needle toward the extremity of the tail. A ground needle electrode was inserted between the anode and reference needles. The caudal nerve was stimulated with a series of 20 pulses (for 0.2 ms) at an intensity of 12.8 mA. The velocity was expressed in m/s.
H-wave reflex was recorded in the hind footpad muscle after stimulation of the sciatic nerve. […] The sciatic nerve was stimulated with a single 0.2 ms pulse at supramaximal intensity. The amplitude (mV) of H wave and the proportion of animal lacking H wave response were the parameters studied.

## IL-6: Recombinant human IL-6 produced in genetically engineered Chinese Hamster Ovary (CHO) cells
IL-6 3 or 10 μg/kg daily or 10 μg/kg 3 times per week, sc
  H wave latency under taxol: prevent/reduce H wave latency
IL-6 3 or 10 μg/kg daily or 3 times per week
  alterations in SNCV by taxol: prevent alterations in SNCV
IL-6 at all the dosages tested, throughout the experiment
  reduction in H wave amplitude by taxol: significantly prevented the reduction in H wave amplitude
IL-6 vs 4-MC
  preventive effects compared with 4-MC co-administration: more significant than those of 4-MC co-administration
